Our source for the remaining activity values is article doi:10.1101/2024.08.19.608619, “Discovery of potent SARS-CoV-2 nsp3 macrodomain inhibitors uncovers lack of translation to cellular antiviral response” (bioRxiv, 2024).

Read-outs that look alike come from different tables or passages of the source.

Holding throughout (assay): biochemical
Design in all cases: In vitro kinase panel profiling, per cent remaining kinase activity at 10 uM

Experiment [1] has as its target T1, PI3 Kinase (p110α/p85α)(h) (Homo sapiens, UniProt P42336).
T1 construct: gene PIK3CA
As to conditions: atp_concentration=200, read-out: % of control remaining. An excerpt: (§1) We derisk potential for off-target activity by profiling the compound in a CEREP panel, a standard secondary pharmacology assessment, as well as a kinase panel to derisk a potential hinge-binding motif in our leads, and a PARP panel to derisk activity against human […]. Reassuringly, the compounds are selective, with the only off-targets being moderate human CHRM2 and KOR receptors activity associated with ASAP-0011198.

Another experiment concerns the target Plk3(h) (Homo sapiens, UniProt Q9H4B4). To be noted: atp_concentration=70, read-out: % of control remaining.
Excerpt: as §1

The target in another experiment is T2, Aurora-A(h) (Homo sapiens, UniProt O14965).
T2 construct: gene AURKA
T2 sequence (O14965 1-403): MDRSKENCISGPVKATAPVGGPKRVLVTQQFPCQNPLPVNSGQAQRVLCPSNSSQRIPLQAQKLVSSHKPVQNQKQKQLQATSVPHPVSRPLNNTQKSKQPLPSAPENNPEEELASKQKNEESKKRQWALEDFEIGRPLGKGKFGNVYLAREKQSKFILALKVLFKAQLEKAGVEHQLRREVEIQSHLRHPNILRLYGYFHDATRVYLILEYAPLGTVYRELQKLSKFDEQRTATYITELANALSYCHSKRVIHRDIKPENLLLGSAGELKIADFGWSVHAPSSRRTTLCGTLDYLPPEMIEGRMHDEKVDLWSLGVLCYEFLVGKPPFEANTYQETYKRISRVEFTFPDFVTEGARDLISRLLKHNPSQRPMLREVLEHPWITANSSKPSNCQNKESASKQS
As to conditions: atp_concentration=15, read-out: % of control remaining.
Excerpt: as §1

The target of another experiment is T3, GSK3β(h) (Homo sapiens, UniProt P49841).
T3 construct: gene GSK3B
To be noted: atp_concentration=15, read-out: % of control remaining.
Excerpt: as §1

A further experiment deals with T4, Pim-1(h) (Homo sapiens, UniProt P11309).
T4 construct: gene PIM1
As to conditions: atp_concentration=90, read-out: % of control remaining.
Excerpt: as §1

For a further experiment, the target named is CDK2/cyclinA(h) (Homo sapiens, UniProt P24941). As to conditions: atp_concentration=45, read-out: % of control remaining.
Excerpt: as §1

In a further experiment the target is T5, TAK1(h) (Homo sapiens, UniProt O43318).
T5 construct: gene MAP3K7
T5 sequence (O43318 1-606): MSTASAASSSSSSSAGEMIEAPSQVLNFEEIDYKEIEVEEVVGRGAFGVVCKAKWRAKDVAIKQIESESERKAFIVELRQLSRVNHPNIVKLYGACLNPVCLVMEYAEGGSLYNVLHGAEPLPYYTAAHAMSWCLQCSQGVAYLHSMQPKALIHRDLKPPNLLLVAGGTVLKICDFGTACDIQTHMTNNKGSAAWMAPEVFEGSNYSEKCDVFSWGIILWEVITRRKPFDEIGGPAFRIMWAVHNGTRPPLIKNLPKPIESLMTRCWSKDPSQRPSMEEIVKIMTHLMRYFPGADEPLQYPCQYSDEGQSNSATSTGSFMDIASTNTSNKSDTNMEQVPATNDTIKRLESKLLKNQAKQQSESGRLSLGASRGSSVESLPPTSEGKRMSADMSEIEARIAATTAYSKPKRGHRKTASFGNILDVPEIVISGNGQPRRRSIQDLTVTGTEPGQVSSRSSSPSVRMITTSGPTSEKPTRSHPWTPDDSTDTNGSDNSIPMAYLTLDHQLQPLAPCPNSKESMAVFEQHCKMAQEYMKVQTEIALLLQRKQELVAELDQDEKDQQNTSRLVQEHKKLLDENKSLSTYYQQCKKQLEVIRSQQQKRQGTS
To be noted: atp_concentration=45, read-out: % of control remaining.
Excerpt: as §1

The next experiment deals with T6, NEK2(h) (Homo sapiens, UniProt P51955).
T6 sequence (P51955 1-445): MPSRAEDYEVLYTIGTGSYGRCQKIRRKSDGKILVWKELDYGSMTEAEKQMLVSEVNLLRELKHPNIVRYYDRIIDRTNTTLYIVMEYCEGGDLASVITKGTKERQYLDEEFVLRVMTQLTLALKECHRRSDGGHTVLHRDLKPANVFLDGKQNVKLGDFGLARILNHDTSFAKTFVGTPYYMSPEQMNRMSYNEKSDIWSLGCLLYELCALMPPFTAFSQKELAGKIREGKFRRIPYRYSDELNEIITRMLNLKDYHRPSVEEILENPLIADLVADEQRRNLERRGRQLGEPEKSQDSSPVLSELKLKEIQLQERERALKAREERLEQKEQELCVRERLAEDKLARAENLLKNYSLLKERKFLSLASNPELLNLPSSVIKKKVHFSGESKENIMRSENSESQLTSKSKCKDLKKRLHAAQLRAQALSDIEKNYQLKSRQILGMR
As to conditions: atp_concentration=120, read-out: % of control remaining.
Excerpt: as §1

The next experiment deals with T7, MEK1(h) (Homo sapiens, UniProt Q02750).
T7 construct: gene MAP2K1
As to conditions: atp_concentration=10, read-out: % of control remaining.
Excerpt: as §1

For a further experiment, the target named is T8, PDGFRβ(h) (Homo sapiens, UniProt P09619).
T8 construct: gene PDGFRB
As to conditions: atp_concentration=200, read-out: % of control remaining.
Excerpt: as §1

For the next experiment, the target named is JAK2(h) (Homo sapiens, UniProt O60674). To be noted: atp_concentration=45, read-out: % of control remaining.
Excerpt: as §1

T7 sequence (Q02750 whole entry): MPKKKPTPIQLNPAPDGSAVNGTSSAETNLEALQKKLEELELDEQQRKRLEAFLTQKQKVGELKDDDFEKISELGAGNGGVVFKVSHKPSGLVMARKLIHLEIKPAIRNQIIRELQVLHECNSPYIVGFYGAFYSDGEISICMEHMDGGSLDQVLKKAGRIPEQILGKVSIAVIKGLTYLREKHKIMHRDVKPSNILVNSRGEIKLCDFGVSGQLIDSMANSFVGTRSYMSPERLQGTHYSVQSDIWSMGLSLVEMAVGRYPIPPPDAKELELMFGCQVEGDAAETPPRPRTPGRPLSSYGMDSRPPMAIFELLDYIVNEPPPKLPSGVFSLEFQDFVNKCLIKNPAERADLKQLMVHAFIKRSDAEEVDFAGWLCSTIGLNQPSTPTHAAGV
T8 sequence (P09619 whole entry): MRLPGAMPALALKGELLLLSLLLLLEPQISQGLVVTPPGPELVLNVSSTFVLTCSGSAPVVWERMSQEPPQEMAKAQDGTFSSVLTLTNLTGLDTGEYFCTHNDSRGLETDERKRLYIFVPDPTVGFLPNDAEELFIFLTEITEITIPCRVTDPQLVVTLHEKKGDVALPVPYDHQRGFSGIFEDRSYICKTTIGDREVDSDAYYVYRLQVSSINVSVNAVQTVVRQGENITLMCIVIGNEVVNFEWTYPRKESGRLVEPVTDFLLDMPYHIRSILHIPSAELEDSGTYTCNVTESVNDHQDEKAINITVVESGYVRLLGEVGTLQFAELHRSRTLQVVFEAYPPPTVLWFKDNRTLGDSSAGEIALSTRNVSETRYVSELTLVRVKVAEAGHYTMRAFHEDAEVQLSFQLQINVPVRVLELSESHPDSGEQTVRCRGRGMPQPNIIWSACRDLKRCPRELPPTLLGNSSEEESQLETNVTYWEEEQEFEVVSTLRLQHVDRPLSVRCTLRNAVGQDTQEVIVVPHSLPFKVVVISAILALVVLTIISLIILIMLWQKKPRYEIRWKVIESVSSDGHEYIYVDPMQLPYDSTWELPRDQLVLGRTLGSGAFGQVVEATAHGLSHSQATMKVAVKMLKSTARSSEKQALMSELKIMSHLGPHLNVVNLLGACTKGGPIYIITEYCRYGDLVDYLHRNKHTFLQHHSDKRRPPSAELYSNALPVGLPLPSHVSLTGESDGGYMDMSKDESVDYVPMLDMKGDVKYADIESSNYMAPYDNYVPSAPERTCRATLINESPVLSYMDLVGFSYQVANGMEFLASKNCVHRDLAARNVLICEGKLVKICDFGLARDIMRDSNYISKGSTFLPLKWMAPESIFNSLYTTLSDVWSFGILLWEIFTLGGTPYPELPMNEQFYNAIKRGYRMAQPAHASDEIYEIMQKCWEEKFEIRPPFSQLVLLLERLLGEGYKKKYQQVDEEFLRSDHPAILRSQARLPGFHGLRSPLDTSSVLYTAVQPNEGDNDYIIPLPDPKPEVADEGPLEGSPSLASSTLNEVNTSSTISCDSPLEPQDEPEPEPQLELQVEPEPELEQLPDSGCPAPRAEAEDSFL
Sequence of JAK2(h) (O60674 whole entry): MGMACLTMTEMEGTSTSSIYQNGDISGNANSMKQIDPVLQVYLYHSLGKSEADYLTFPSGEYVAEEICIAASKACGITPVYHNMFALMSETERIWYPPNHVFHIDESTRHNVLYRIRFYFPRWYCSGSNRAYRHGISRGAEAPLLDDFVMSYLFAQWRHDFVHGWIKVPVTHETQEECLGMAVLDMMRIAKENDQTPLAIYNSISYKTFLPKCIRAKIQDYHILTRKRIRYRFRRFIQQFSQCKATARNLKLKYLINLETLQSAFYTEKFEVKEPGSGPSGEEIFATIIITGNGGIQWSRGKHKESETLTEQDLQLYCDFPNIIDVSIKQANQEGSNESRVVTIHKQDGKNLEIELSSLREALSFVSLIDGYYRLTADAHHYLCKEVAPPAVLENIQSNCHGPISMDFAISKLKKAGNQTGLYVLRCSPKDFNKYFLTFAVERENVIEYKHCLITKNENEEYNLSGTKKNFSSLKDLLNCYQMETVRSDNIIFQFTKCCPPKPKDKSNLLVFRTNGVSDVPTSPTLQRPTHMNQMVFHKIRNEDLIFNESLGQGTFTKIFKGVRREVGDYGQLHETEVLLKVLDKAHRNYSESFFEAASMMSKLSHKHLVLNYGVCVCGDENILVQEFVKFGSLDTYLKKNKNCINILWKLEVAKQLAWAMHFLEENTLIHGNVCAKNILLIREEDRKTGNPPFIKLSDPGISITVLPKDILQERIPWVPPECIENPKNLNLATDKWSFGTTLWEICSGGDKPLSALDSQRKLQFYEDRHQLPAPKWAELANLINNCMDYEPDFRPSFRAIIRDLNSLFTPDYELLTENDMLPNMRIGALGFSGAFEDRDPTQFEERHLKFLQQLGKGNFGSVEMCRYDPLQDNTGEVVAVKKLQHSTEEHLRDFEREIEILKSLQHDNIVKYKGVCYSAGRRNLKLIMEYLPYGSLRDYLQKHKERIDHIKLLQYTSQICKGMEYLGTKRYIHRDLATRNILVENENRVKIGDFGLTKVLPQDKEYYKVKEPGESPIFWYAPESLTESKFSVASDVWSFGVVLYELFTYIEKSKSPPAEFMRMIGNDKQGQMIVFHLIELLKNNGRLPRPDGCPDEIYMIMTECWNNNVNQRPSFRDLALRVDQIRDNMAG
Sequence of Plk3(h) (Q9H4B4 whole entry): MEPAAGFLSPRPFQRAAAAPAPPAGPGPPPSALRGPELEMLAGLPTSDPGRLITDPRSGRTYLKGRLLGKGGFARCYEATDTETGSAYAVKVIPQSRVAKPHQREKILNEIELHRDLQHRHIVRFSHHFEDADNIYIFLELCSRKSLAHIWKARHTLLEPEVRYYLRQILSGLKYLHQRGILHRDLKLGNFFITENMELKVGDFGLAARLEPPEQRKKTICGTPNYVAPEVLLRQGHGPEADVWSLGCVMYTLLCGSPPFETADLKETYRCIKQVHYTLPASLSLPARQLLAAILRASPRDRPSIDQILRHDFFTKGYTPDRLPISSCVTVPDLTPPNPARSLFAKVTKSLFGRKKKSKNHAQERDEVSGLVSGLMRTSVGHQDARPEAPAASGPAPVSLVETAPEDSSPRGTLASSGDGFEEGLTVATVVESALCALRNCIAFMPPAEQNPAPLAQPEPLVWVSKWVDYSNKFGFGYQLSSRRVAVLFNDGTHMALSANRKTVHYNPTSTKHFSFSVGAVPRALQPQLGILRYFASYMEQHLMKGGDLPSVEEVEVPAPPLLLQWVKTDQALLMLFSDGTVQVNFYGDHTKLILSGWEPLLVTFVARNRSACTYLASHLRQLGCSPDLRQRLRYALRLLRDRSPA
T3 sequence (P49841 whole entry): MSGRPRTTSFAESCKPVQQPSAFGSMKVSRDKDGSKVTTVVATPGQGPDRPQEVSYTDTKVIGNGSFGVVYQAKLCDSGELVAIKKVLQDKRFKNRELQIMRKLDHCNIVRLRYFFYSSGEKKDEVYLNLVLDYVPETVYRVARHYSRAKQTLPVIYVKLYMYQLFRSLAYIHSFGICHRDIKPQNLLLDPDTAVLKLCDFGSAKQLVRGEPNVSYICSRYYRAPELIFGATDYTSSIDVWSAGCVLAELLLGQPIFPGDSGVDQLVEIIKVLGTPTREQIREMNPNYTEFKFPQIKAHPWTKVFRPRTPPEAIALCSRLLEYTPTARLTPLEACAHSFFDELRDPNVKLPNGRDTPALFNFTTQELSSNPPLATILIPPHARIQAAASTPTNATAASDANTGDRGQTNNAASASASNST
T4 sequence (P11309 whole entry): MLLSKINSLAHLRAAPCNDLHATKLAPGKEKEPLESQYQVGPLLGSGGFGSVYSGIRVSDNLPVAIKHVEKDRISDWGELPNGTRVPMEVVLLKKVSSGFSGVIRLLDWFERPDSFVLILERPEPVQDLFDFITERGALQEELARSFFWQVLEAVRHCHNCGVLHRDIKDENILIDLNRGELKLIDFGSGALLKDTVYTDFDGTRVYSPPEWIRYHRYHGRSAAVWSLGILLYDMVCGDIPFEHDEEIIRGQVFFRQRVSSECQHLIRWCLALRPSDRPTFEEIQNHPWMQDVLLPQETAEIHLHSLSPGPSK

On to `CC(C)[C@@H](Nc1ncnc2[nH]c(-c3cnn(C)c3C#N)cc12)c1ccc2c(n1)OCCO2` [ASAP-0010716], for which the remaining activity at 10 µM amounted to 55% in experiment [1] (batch_name=ASAP-0010716-002); 89% on Plk3(h) (batch_name=ASAP-0010716-002); 58% on Aurora-A(h) (batch_name=ASAP-0010716-002); 101% on GSK3β(h) (batch_name=ASAP-0010716-002); 99% at Pim-1(h) (batch_name=ASAP-0010716-002); 104% on CDK2/cyclinA(h) (batch_name=ASAP-0010716-002). Also, the remaining activity at 10 µM at TAK1(h) (batch_name=ASAP-0010716-002) was found to be 100%; on NEK2(h) (batch_name=ASAP-0010716-002) it was 76%; on MEK1(h) (batch_name=ASAP-0010716-002) it was 103%; on PDGFRβ(h) (batch_name=ASAP-0010716-002), 93%; at JAK2(h) (batch_name=ASAP-0010716-002), 123%.

For the molecule `CNCc1cc(-c2cc3c(N[C@@H](c4ccc5c(c4)S(=O)(=O)CCC5)C(C)C)ncnc3[nH]2)co1` [ASAP-0011176], the remaining activity at 10 µM is 99% in experiment [1] (batch_name=ASAP-0011176-002); 124% at Plk3(h) (batch_name=ASAP-0011176-002); 73% on Aurora-A(h) (batch_name=ASAP-0011176-002); 92% on GSK3β(h) (batch_name=ASAP-0011176-002); 93% on Pim-1(h) (batch_name=ASAP-0011176-002); 98% at CDK2/cyclinA(h) (batch_name=ASAP-0011176-002). Besides, the remaining activity at 10 µM was 90% on TAK1(h) (batch_name=ASAP-0011176-002); 105% on NEK2(h) (batch_name=ASAP-0011176-002); 97% on MEK1(h) (batch_name=ASAP-0011176-002); 89% on PDGFRβ(h) (batch_name=ASAP-0011176-002); 114% at JAK2(h) (batch_name=ASAP-0011176-002).

With `CC(C)C(Nc1ncnc2[nH]c(C(=O)NC3CCN(C)C3)cc12)c1ccc2c(c1)S(=O)(=O)CCC2` (stereo not shown) [ASAP-0011198], the remaining activity at 10 µM was 104% in experiment [1] (batch_name=ASAP-0011198-002); 98% on Plk3(h) (batch_name=ASAP-0011198-002); 97% at Aurora-A(h) (batch_name=ASAP-0011198-002); 93% at GSK3β(h) (batch_name=ASAP-0011198-002); 97% on Pim-1(h) (batch_name=ASAP-0011198-002); 117% on CDK2/cyclinA(h) (batch_name=ASAP-0011198-002). The remaining activity at 10 µM came out at 100% at TAK1(h) (batch_name=ASAP-0011198-002); 118% on NEK2(h) (batch_name=ASAP-0011198-002); 107% at MEK1(h) (batch_name=ASAP-0011198-002); 83% at PDGFRβ(h) (batch_name=ASAP-0011198-002); 106% on JAK2(h) (batch_name=ASAP-0011198-002).

On to `Cn1ncc(-c2cc3c(N[C@@H](c4ccc5c(n4)OCCO5)C(C)(C)C)ncnc3[nH]2)c1C#N` [ASAP-0011221], for which the remaining activity at 10 µM in [1] (batch_name=ASAP-0011221-002) is 75%; on Plk3(h) (batch_name=ASAP-0011221-002), 77%; on Aurora-A(h) (batch_name=ASAP-0011221-002) it was 95%; at GSK3β(h) (batch_name=ASAP-0011221-002), 98%; on Pim-1(h) (batch_name=ASAP-0011221-002) it was 107%; at CDK2/cyclinA(h) (batch_name=ASAP-0011221-002) it was 114%. For the same molecule, the remaining activity at 10 µM at TAK1(h) (batch_name=ASAP-0011221-002) was 95%; on NEK2(h) (batch_name=ASAP-0011221-002), 104%; on MEK1(h) (batch_name=ASAP-0011221-002), 98%; at PDGFRβ(h) (batch_name=ASAP-0011221-002), 100%; on JAK2(h) (batch_name=ASAP-0011221-002) it was 140%.

Regarding `Cc1nn(C)cc1-c1cc2c(NC(c3ccc4c(c3)S(=O)(=O)CCC4)C(C)C)ncnc2[nH]1` (stereo not shown) [ASAP-0011446], the remaining activity at 10 µM turned out to be 102% in [1] (batch_name=ASAP-0011446-002); 104% at Plk3(h) (batch_name=ASAP-0011446-002); 55% at Aurora-A(h) (batch_name=ASAP-0011446-002); 96% on GSK3β(h) (batch_name=ASAP-0011446-002); 95% on Pim-1(h) (batch_name=ASAP-0011446-002); 107% on CDK2/cyclinA(h) (batch_name=ASAP-0011446-002). For the same molecule, the remaining activity at 10 µM on TAK1(h) (batch_name=ASAP-0011446-002) stood at 100%; on NEK2(h) (batch_name=ASAP-0011446-002), 98%; at MEK1(h) (batch_name=ASAP-0011446-002), 99%; on PDGFRβ(h) (batch_name=ASAP-0011446-002) it was 97%; at JAK2(h) (batch_name=ASAP-0011446-002) it was 111%.
